# According to ChEMBL document CHEMBL4706499, “PTG-0861: A novel HDAC6-selective inhibitor as a therapeutic strategy in acute myeloid leukaemia” (Eur J Med Chem, 2020):
# Tests used:
# MV4-11 = assay: Cytotoxicity against human MV4-11 cells measured after 72 hrs by spectrophotometer method; type: functional, cell-based; details: MV4-11, 72 h
# Histone deacetylase 8 = biological target: T1, Histone deacetylase 8 (Homo sapiens, UniProt Q9BY41); assay: Inhibition of recombinant full length human HDAC8 expressed in SF9 baculovirus using FAM- labelled acetylated peptide as substrate measured by Electrophoretic mobility shift assay
# T1 sequence (Q9BY41 whole entry): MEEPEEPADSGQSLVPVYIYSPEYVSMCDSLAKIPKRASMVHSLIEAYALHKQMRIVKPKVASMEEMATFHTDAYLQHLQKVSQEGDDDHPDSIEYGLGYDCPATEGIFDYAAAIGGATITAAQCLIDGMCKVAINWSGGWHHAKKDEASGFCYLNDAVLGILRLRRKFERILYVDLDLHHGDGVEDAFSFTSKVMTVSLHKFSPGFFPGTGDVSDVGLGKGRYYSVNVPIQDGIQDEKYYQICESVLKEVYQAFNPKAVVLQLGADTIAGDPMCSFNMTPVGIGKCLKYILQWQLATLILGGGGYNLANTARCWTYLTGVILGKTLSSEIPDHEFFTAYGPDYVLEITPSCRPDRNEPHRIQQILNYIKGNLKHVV
# Histone deacetylase 3 = Histone deacetylase 3 (Homo sapiens, UniProt O15379); assay: Inhibition of recombinant full length human HDAC3 expressed in SF9 baculovirus using FAM- labelled acetylated peptide as substrate measured by Electrophoretic mobility shift assay
# Histone deacetylase 3, sequence (O15379 whole entry): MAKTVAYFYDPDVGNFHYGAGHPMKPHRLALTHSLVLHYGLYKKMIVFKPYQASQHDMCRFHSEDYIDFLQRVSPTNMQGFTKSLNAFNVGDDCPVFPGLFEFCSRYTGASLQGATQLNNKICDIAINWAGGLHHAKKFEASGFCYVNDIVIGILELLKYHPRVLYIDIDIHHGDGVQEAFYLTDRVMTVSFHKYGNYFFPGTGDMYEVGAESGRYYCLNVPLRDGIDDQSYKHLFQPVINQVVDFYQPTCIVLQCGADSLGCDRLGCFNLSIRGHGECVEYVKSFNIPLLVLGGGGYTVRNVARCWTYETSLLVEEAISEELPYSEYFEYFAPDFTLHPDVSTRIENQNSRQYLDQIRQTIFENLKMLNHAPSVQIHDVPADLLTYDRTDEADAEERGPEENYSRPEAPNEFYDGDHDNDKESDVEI
# [1] = biological target: T2, Protein deacetylase HDAC6 (Homo sapiens, UniProt Q9UBN7); assay: Inhibition of recombinant full length human HDAC6 expressed in SF9 baculovirus using FAM- labelled acetylated peptide as substrate measured by Electrophoretic mobility shift assay
# T2 sequence (Q9UBN7 whole entry): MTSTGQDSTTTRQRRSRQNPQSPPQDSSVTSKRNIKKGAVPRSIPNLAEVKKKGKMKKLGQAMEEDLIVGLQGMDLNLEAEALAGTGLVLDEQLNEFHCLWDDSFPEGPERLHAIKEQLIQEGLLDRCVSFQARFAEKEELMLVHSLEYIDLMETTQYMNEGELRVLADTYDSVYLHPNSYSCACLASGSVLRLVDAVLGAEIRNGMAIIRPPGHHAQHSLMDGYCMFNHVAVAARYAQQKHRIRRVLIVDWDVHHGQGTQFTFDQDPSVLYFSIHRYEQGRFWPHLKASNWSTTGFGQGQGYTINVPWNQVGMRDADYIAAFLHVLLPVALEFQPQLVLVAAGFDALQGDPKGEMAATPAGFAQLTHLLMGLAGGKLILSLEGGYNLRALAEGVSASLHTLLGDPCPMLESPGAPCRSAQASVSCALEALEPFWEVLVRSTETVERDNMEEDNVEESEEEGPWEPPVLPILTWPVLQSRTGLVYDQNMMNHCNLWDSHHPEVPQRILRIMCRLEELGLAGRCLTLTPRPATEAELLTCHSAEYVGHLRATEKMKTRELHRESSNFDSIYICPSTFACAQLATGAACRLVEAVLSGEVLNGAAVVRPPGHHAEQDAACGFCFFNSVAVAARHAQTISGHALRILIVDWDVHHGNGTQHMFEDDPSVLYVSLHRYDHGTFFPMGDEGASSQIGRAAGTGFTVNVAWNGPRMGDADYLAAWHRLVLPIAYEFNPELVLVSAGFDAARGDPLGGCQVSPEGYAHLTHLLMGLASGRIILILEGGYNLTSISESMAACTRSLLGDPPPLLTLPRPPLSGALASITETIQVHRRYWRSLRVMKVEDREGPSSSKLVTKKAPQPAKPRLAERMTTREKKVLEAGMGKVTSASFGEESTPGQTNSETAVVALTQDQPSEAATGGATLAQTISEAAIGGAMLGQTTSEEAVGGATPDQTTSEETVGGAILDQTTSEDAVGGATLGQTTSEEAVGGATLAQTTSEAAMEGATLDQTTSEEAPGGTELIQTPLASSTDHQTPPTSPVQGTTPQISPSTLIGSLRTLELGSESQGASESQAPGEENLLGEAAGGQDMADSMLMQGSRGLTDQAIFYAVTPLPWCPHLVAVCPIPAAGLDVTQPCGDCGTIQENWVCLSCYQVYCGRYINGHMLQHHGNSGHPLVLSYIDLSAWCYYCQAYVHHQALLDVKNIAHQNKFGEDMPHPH
# [2] = Cytotoxicity against human MRC9 cells measured after 72 hrs by spectrophotometer method; type: cell-based; details: MRC9, 72 h
# [3] = Selectivity ratio of IC50 for full length recombinant human HDAC3 to IC50 for full length recombinant human HDAC6
# Histone deacetylase 11 = biological target: T3, Histone deacetylase 11 (Homo sapiens, UniProt Q96DB2); assay: Inhibition of recombinant full length human HDAC11 expressed in SF9 baculovirus using FAM- labelled acetylated peptide as substrate measured by Electrophoretic mobility shift assay
# T3 sequence (Q96DB2 whole entry): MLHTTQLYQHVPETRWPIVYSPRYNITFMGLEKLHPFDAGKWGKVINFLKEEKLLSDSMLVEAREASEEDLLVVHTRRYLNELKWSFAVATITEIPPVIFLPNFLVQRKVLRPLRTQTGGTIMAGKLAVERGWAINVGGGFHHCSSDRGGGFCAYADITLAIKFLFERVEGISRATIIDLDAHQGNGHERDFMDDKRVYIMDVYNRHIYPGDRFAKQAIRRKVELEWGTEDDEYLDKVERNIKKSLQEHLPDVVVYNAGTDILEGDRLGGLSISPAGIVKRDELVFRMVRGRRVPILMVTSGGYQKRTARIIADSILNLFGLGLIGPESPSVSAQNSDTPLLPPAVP
SMILES,IC50 (MV4-11),IC50 (Histone deacetylase 8),IC50 (Histone deacetylase 3),IC50 [1],IC50 [2],Ratio IC50 [3],IC50 (Histone deacetylase 11)
O=C(NO)c1ccc(NC(=O)c2ccc(F)cc2)cc1,3640 nM,567 nM,45.4 nM,6.77 nM,> 25000 nM,6.7,> 1000 nM
CCN(C(=O)c1ccc(C(C)(C)C)cc1)c1ccc(C(=O)NO)cc1,8230 nM,281 nM,> 1000 nM,> 1000 nM,> 25000 nM,–,> 1000 nM
CC(C)(C)c1ccc(S(=O)(=O)Nc2ccc(C(=O)NO)cc2)cc1,1180 nM,13.3 nM,2.25 nM,2.01 nM,> 25000 nM,1.12,44.2 nM
CC(C)(C)c1cccc(C(=O)Nc2ccc(C(=O)NO)cc2)c1,3880 nM,–,–,–,> 25000 nM,–,–
Cc1ccc(C(=O)Nc2ccc(C(=O)NO)cc2)cc1,2400 nM,21.6 nM,10.9 nM,1.6 nM,> 25000 nM,6.81,> 1000 nM
CC(C)(C)c1ccc(NS(=O)(=O)c2ccc(C(=O)NO)cc2)cc1,7160 nM,9.4 nM,34.4 nM,17.5 nM,> 50000 nM,–,223 nM
CC(C)(C)c1ccc(S(=O)(=O)NCc2ccc(C(=O)NO)cc2)cc1,5030 nM,622 nM,297 nM,41.9 nM,> 25000 nM,7.09,> 1000 nM
CC(C)(C)c1ccc(C(=O)NCc2ccc(C(=O)NO)cc2)cc1,570 nM,162 nM,15.2 nM,32.4 nM,> 25000 nM,–,> 1000 nM
O=C(NO)c1ccc(NC(=O)c2ccc(C(F)(F)F)cc2)cc1,880 nM,220 nM,243 nM,22.6 nM,> 5000 nM,9.73,> 1000 nM
O=C(NO)c1ccc(NC(=O)c2c(F)c(F)c(F)c(F)c2F)cc1,1510 nM,14 nM,3.13 nM,1.46 nM,> 25000 nM,2.14,700 nM
CC(C)N(Cc1ccc(C(=O)NO)cc1)C(=O)c1c(F)c(F)c(F)c(F)c1F,16400 nM,876 nM,> 1000 nM,14 nM,> 15000 nM,62.6,> 1000 nM
O=C(NO)c1ccc(NC(=O)c2ccc(C3CC3)cc2)cc1,1080 nM,20.4 nM,11.9 nM,2.81 nM,> 25000 nM,4.23,704 nM
O=C(NO)c1ccc(CN(C(=O)c2c(F)c(F)c(F)c(F)c2F)C2CC2)cc1,7370 nM,971 nM,> 1000 nM,18.4 nM,> 50000 nM,> 52.8,> 1000 nM
CN(Cc1ccc(C(=O)NO)cc1)C(=O)c1c(F)c(F)c(F)c(F)c1F,3730 nM,> 1000 nM,740 nM,17.3 nM,> 25000 nM,42.8,> 1000 nM
CC(C)(C)c1ccc(NC(=O)c2ccc(C(=O)NO)cc2)cc1,1440 nM,43.9 nM,10.9 nM,10.4 nM,> 25000 nM,1.05,447 nM
CC(C)(C)c1ccc(CC(=O)Nc2ccc(C(=O)NO)cc2)cc1,340 nM,74.3 nM,3.74 nM,13 nM,> 15000 nM,–,> 1000 nM
O=C(/C=C/c1ccc(CNC(=O)c2c(F)c(F)c(F)c(F)c2F)cc1)NO,320 nM,283 nM,13 nM,14 nM,> 25000 nM,–,> 1000 nM
O=C(NO)c1ccc(NC(=O)c2ccc(C3CCCCC3)cc2)cc1,530 nM,208 nM,159 nM,26.6 nM,> 25000 nM,5.98,411 nM
O=C(NO)c1ccc(NC(=O)c2ccc(N3CCOCC3)cc2)cc1,17100 nM,921 nM,> 1000 nM,96.6 nM,> 50000 nM,> 9.53,> 1000 nM
O=C(/C=C/c1ccc(CN(C(=O)c2c(F)c(F)c(F)c(F)c2F)C2CC2)cc1)NO,760 nM,420 nM,70 nM,12 nM,> 25000 nM,5.83,> 1000 nM
CC(C)(C)c1ccc(C(=O)N(Cc2ccc(C(=O)NO)cc2)C2CC2)cc1,8570 nM,269 nM,323 nM,20.9 nM,> 25000 nM,12.9,> 1000 nM
